Reference: patent publication US20170333391A1, “METHOD FOR DELAYING THE ONSET OF PULMONARY FIBROSIS OR TREATING PULMONARY FIBROSIS” (EVERFRONT BIOTECH INC., priority 2016, published 2017)

What was measured:
Type in all cases: cell-based, human
[1] = test system: type I collagen; experiment: Type I collagen expression in transfected NHLF (pcDNA3.1 empty vector or pcDNA3.1-SOX2), western blotting (2-3); conditions: TGF-β1 5 ng/ml 12 h
Procedure: The pcDNA3.1 empty vector and the pcDNA3.1-SOX2 plasmid (i.e., pcDNA3.1 vector containing SOX2 gene) were respectively transfected into Normal Human lung fibroblasts (NHLF) by the Fugene HD cell transfection reagent. The cells were screened to obtain NHLFs containing the pcDNA3.1 empty vector or the pcDNA3.1-SOX2 plasmid.
NHLFs containing the pcDNA3.1 empty vector were then seeded into 6 cm culture dishes at a density of 2×10^5 cells/dish, comprising a control group and three experimental groups (4 dishes in total). The cells were cultured until the next day, and then the mediums were removed. Each group was respectively treated under the following conditions to conduct follow-up experiments: • (1) Control group I: cells were cultured in a FGM-2 medium containing 1% serum for 36 hours; • (2) Group A: cells were cultured in a FGM-2 medium containing 1% serum and TGF-β1 (5 ng/ml) for 36 hours; • (3) Group B: cells were firstly cultured in a FGM-2 medium containing 1% serum and TGF-β1 (5 ng/ml) for 12 hours, and then compound (1) was added into the medium to provide a final concentration of 15 μg/ml; thereafter, the cells were cultured for another 24 hours; and • (4) Group C: cells were firstly cultured in a FGM-2 medium containing 1% serum and TGF-β1 (5 ng/ml) for 12 hours, and then compound (1) was added into the medium to provide a final concentration of 30 μg/ml; thereafter, the cells were cultured for another 24 hours.
In another aspect, NHLFs containing the pcDNA3.1-SOX2 plasmid were seeded into the 6 cm culture dishes at a density of 2×10^5 cells/dish, comprising a control group and three experimental groups (4 dishes in total). The cells were cultured until the next day, and then the mediums were removed. Each group was respectively treated under the following conditions to conduct follow-up experiments: • (1) Control group II: cells were cultured in a FGM-2 medium containing 1% serum for 36 hours; • (2) Group D: cells were cultured in a FGM-2 medium containing 1% serum and TGF-β1 (5 ng/ml) for 36 hours; • (3) Group E: cells were firstly cultured in a FGM-2 medium containing 1% serum and TGF-β1 (5 ng/ml) for 12 hours, and then the compound (1) was added into the medium to provide a final concentration of 15 μg/ml; thereafter, the cells were cultured for another 24 hours; and • (4) Group F: cells were firstly cultured in a FGM-2 medium containing 1% serum and TGF-β1 (5 ng/ml) for 12 hours, and then the compound (1) was added into the medium to provide a final concentration of 30 μg/ml; thereafter, the cells were cultured for another 24 hours.
Thereafter, the proteins in the cells of each group were extracted, and the expressions of Sox2 protein, TGF-β protein and type I collagen in the NHLF cells of each group were measured with western blotting. […]

[2] = test system: TGF-β protein; experiment: TGF-β protein expression in NHLF, western blotting (3-1)
Procedure: (§1) Normal Human lung fibroblasts (NHLF) were seeded into 6 cm culture dishes at a density of 2×10^5 cells/dish, comprising a control group and six experimental groups (7 dishes in total). The cells were cultured until the next day, and then the mediums were removed. Each group was respectively treated under the following conditions to conduct follow-up experiments: • (1) Control group: cells were cultured in a FGM-2 medium containing 10% serum for 36 hours; • (2) Group i: cells were cultured in a FGM-2 medium containing 1% serum for 36 hours; • (3) Group ii: cells were firstly cultured in a FGM-2 medium containing 1% serum for 12 hours, and then compound (1) was added into the medium to provide a final concentration of 15 μg/ml; thereafter, the cells were cultured for another 24 hours; • (4) Group iii: cells were firstly cultured in a FGM-2 medium containing 1% serum for 12 hours, and then compound (1) was added into the medium to provide a final concentration of 25 μg/ml; thereafter, the cells were cultured for another 24 hours; • (5) Group iv: cells were cultured in a FGM-2 medium containing 1% serum and TGF-β1 (5 ng/ml) for 36 hours; • (6) Group v: cells were firstly cultured in a FGM-2 medium containing 1% serum and TGF-β1 (5 ng/ml) for 12 hours, and then compound (1) was added into the medium to provide a final concentration of 15 μg/ml; thereafter, the cells were cultured for another 24 hours; and • (7) Group vi: cells were firstly cultured in a FGM-2 medium containing 1% serum and TGF-β1 (5 ng/ml) for 12 hours, and then compound (1) was added into the medium to provide a final concentration of 25 μg/ml; thereafter, the cells were cultured for another 24 hours.
(§2) Thereafter, the proteins in the cells of each group were extracted, and the expressions of BMP-7 protein, TGF-β protein and α-SMA protein in the NHLF cells of each group were measured with western blotting, wherein the β-actin served as the internal control. The results of the control group served as the basis for calculating the relative expression levels of the other groups.

[3] = test system: α-SMA protein; experiment: α-SMA protein expression in NHLF, western blotting (3-1)
Procedure: as §1, §2

`CCCC=C1OC(=O)c2ccccc21` [compound (1)] was tested, and the “Relative expression level (fold) Type I collagen” value ([1]; Group B: NHLF with pcDNA3.1 empty vector, then compound (1) 15 μg/ml 24 h, control group I = 1, TGF-β1-only group A = 5.83) was 3.74 fold, the “Relative expression level (fold) Type I collagen” value ([1]; Group C: NHLF with pcDNA3.1 empty vector, then compound (1) 30 μg/ml 24 h, control group I = 1, TGF-β1-only group A = 5.83) was 0.88 fold and the “Relative expression level (fold) Type I collagen” value ([1]; Group E: NHLF with pcDNA3.1-SOX2 plasmid, then compound (1) 15 μg/ml 24 h, control group II = 1, TGF-β1-only group D = 1.57) was 1.30 fold. The “Relative expression level (fold) Type I collagen” value ([1]; Group F: NHLF with pcDNA3.1-SOX2 plasmid, then compound (1) 30 μg/ml 24 h, control group II = 1, TGF-β1-only group D = 1.57) was 1.29 fold, the “Relative expression level (fold) TGF-β protein” value ([2]; Group ii: 1% serum 12 h, then compound (1) 15 μg/ml 24 h, no TGF-β1, 10% serum control = 1, 1% serum group i = 0.66) was 0.63 fold and the “Relative expression level (fold) TGF-β protein” value ([2]; Group iii: 1% serum 12 h, then compound (1) 25 μg/ml 24 h, no TGF-β1, 10% serum control = 1, 1% serum group i = 0.66) was 0.52 fold. For the same compound, the “Relative expression level (fold) TGF-β protein” value ([2]; Group v: 1% serum + TGF-β1 5 ng/ml 12 h, then compound (1) 15 μg/ml 24 h, 10% serum control = 1, TGF-β1-only group iv = 0.80) was 0.79 fold, the “Relative expression level (fold) TGF-β protein” value ([2]; Group vi: 1% serum + TGF-β1 5 ng/ml 12 h, then compound (1) 25 μg/ml 24 h, 10% serum control = 1, TGF-β1-only group iv = 0.80) was 0.59 fold and the “Relative expression level (fold) α-SMA protein” value ([3]; Group ii: 1% serum 12 h, then compound (1) 15 μg/ml 24 h, no TGF-β1, 10% serum control = 1, 1% serum group i = 0.94) was 0.95 fold. The “Relative expression level (fold) α-SMA protein” value ([3]; Group iii: 1% serum 12 h, then compound (1) 25 μg/ml 24 h, no TGF-β1, 10% serum control = 1, 1% serum group i = 0.94) was 0.89 fold, the “Relative expression level (fold) α-SMA protein” value ([3]; Group v: 1% serum + TGF-β1 5 ng/ml 12 h, then compound (1) 15 μg/ml 24 h, 10% serum control = 1, TGF-β1-only group iv = 0.89) was 0.72 fold and the “Relative expression level (fold) α-SMA protein” value ([3]; Group vi: 1% serum + TGF-β1 5 ng/ml 12 h, then compound (1) 25 μg/ml 24 h, 10% serum control = 1, TGF-β1-only group iv = 0.89) was 0.77 fold.
